Experimental data from patent US9403800B2, “Compounds for inhibition of cancer cell proliferation” (ChemRegen, Inc., priority 2012, dated 2016).

Experiments:
[1] = tested on: Wnt transcriptional activity; assay: cell-based Wnt-luciferase reporter assay (SuperTOPFlash); conditions: for Relative potency for Wnt inhibition: relative to IWR-1, transfected HEK293A cells treated 12 hours, normalized to Renilla; for inhibition of Wnt transcriptional activity (in words): Wnt-luciferase reporter
Text: “Hit” 1 (FIG. 1) was identified as a Wnt inhibitor in a high-throughput screen of a library of 74,000 compounds using a cell-based Wnt-luciferase reporter assay as a readout of Wnt transcriptional activity. […] Wnt transcriptional activity was monitored in HEK-293T cells using a luciferase-based Wnt reporter (SuperTOPFlash) stimulated by Wnt3a conditioned media.
Medicinal chemical refinement of “hit” 1 was undertaken to improve its potency, maintain non-toxicity, increase water solubility and improve bioavailability. The SAR refinement of functional activity of “hit” 1 on the inhibition of the Wnt pathway was determined using a cell-based Wnt-luciferase reporter assay (described above). with Renilla Luciferase was used as a normalization for transfection efficiency. 6-8 hours after transfection, transfected HEK293A cells were treated with 1 and each analog for 12 hours. Both firefly and renilla luciferase activities were measured using a plate reader. A library of compounds was tested to obtain an SAR for 1. Compound 1 and its analogs are synthesized by a two step synthesis, Scheme 1.
Signaling was tested using a standard luciferase response system for canonical Wnt/β-catenin/TCF signaling. Briefly, we used a cell line that had been transfected with a luciferase reporter gene under the control of the response element of a transcription factor that is activated by association with β-catenin and is the target of canonical Wnt signaling.

[2] = tested on: canonical Wnt target genes, Cyclin D1 (CCND1), Axin2 (AXIN2), and c-Myc (c-MYC); assay: mRNA levels of canonical Wnt target genes in HEK293T and SW480 cells; type: cell-based; conditions: HEK293T and SW480 colorectal cells
[3] = chemical stability by HPLC; type: physicochemical; conditions: determined by HPLC
Text: As observed from the data presented in Table 1, both free bases and salts gave significant Wnt inhibition potency. On the basis of the lipophilic character of many of the analogs, it is likely interaction site on the molecular target has a lipophilic character although polar interactions are apparent. To increase solubility, were possible, hydrochloride salts of the sulfonamides were synthesized. To afford appropriate bioavailability, sulfonamides were synthesized with chemical and metabolic stability in mind.

[4] = pharmacokinetics in rats; conditions: rat, in vivo
[5] = tested on: SW480 colorectal cancer model cell line; assay: SW480 cell proliferation and cell cycle (InCell 1000); type: cell-based, human
Text: Previous studies have shown that the Wnt signaling pathway drives cellular proliferation of a number of cancers through up-regulation of genes for several proteins crucial for cell division including Cyclin D1, c-Myc, etc. and treatment of cancer cells with 1 or analogs decreases cellular proliferation. Accordingly, we examined the effect of 1 and analogs on cell proliferation of human cancer cell lines. […] The results were confirmed by studying the effects of 1 on SW480 human colon cell cycle determined by cell images captured by InCell 1000.

| Compound | Relative potency for Wnt inhibition [1] | further results |
| --- | --- | --- |
| O=C1CCCN1c1ccc(S(=O)(=O)N2CCCc3cc(C(F)(F)F)ccc32)cc1 [Compound 8, 1-(4-(6-(trifluoromethyl)-3,4-dihydroquinolin-1(2H)-ylsulfonyl)phenyl)-pyrrolidin-2-one] | +++ (between 40 to 60% potency compared to IWR-1) |  |
| CC(=O)c1ccc(NN=C(C(N)=O)C2=NC(C)(C)Cc3ccccc32)cc1 [IQ-1] |  | mRNA levels of canonical Wnt target genes CCND1, AXIN2, c-MYC [2]: enhanced mRNA expression |
| CCC1CCCCN1S(=O)(=O)c1ccc(N2CCCC2=O)cc1 (stereo not shown) [Compound 22, 1-(4-(2-ethylpiperidin-1-ylsulfonyl)phenyl)pyrrolidin-2-one] | + (<20% potency compared to compound IWR-1) |  |
| O=C1CCCN1c1ccc(S(=O)(=O)N2CCc3ccccc3C2)cc1 [Compound 12, 1-(4-(3,4-dihydroisoquinolin-2(1H)-ylsulfonyl)phenyl)pyrrolidin-2-one] | ++++ (between 60 to 80% potency compared to IWR-1) |  |
| CC(C)(C)c1ccc2c(c1)CCCN2S(=O)(=O)c1ccc(N2CCCC2=O)cc1 [Compound 9, 1-(4-(6-tert-butyl-3,4-dihydroquinolin-1(2H)-ylsulfonyl)phenyl)pyrrolidin-2-one] | + (<20% potency compared to compound IWR-1) |  |
| Cc1ccc2c(c1)CN(S(=O)(=O)c1ccc(N3CCCC3=O)cc1)CC2 [Compound 14, 1-(4-(7-methyl-3,4-dihydroisoquinolin-2(1H)-ylsulfonyl)phenyl)pyrrolidin-2-one] | +++ (between 40 to 60% potency compared to IWR-1) |  |
| CN1CCN(S(=O)(=O)c2ccc(N3CCC=N3)cc2)c2ccccc21 [Compound 32, 1-(4-(4,5-dihydro-1H-pyrazol-1-yl)phenylsulfonyl)-4-methyl-1,2,3,4-tetrahydroquinoxaline] | ++++ (between 60 to 80% potency compared to IWR-1) |  |
| CC(=O)N(C)c1ccc(S(=O)(=O)N2CCCc3ccccc32)cc1 [Compound 26, N-(4-(3,4-dihydroquinolin-1(2H)-ylsulfonyl)phenyl)-N-methylacetamide] | + (<20% potency compared to compound IWR-1) |  |
| O=C1CCCN1c1ccc(S(=O)(=O)Nc2ccccc2OC(F)(F)F)cc1 [Compound 19, 4-(2-oxopyrrolidin-1-yl)-N-(2-(trifluoromethoxy)phenyl)benzenesulfonamide] | + (<20% potency compared to compound IWR-1) |  |
| CN1CCN(S(=O)(=O)c2ccc(N3CCC(O)C3=O)cc2)c2ccccc21 (stereo not shown) [Compound 28, 3-hydroxy-1-(4-(4-methyl-3,4-dihydroquinoxalin-1(2H)-ylsulfonyl)phenyl)-pyrrolidin-2-one] | +++ (between 40 to 60% potency compared to IWR-1) |  |
| CN1CCN(S(=O)(=O)c2ccc(-n3cccn3)cc2)c2ccccc21 [Compound 33, 1-(4-(1H-pyrazol-1-yl)phenylsulfonyl)-4-methyl-1,2,3,4-tetrahydroquinoxaline] | + (<20% potency compared to compound IWR-1) |  |
| O=C1CCCN1c1ccc(S(=O)(=O)N2CCCc3cc(Cl)ccc32)cc1 [Compound 5, 1-(4-(6-chloro-3,4-dihydroquinolin-1(2H)-ylsulfonyl)phenyl)pyrrolidin-2-one] | ++++ (between 60 to 80% potency compared to IWR-1) |  |
| CCCCN(c1ccccc1)S(=O)(=O)c1ccc(N2CCCC2=O)cc1 [Compound 24, N-butyl-4-(2-oxopyrrolidin-1-yl)-N-phenylbenzenesulfonamide] | + (<20% potency compared to compound IWR-1) |  |
| CN1CCN(S(=O)(=O)c2ccc(N3CCC(O)C3)cc2)c2ccccc21 (stereo not shown) [Compound 34, 1-(4-(4-methyl-3,4-dihydroquinoxalin-1(2H)-ylsulfonyl)phenyl)pyrrolidin-3-ol] | +++ (between 40 to 60% potency compared to IWR-1) |  |
| O=C1CCCN1c1ccc(S(=O)(=O)N2CCCc3cc(F)ccc32)cc1 [Compound 6, 1-(4-(6-fluoro-3,4-dihydroquinolin-1(2H)-ylsulfonyl)phenyl)pyrrolidin-2-one] | +++ (between 40 to 60% potency compared to IWR-1) | chemical half life [3]: No change |
| O=C1CCCN1c1ccc(S(=O)(=O)N2CCCCC2)cc1 [Compound 21, 1-(4-(piperidin-1-ylsulfonyl)phenyl)pyrrolidin-2-one] | + (<20% potency compared to compound IWR-1) |  |
| CN1CCN(S(=O)(=O)c2ccc(N3CCCC3)cc2)c2ccccc21 [Compound 31, 1-methyl-4-(4-(pyrrolidin-1-yl)phenylsulfonyl)-1,2,3,4-tetrahydroquinoxaline] | ++++ (between 60 to 80% potency compared to IWR-1) | bioavailability [4]: 11% |
| O=C1CCCN1c1ccc(S(=O)(=O)N2CCCC3CCCCC32)cc1 (stereo not shown) [Compound 3, 1-(4-(octahydroquinolin-1(2H)-ylsulfonyl)phenyl)pyrrolidin-2-one] |  | inhibition of Wnt transcriptional activity (in words) [1]: potent inhibition of Wnt |
| O=C1CCCN1c1ccc(S(=O)(=O)Nc2cccc3ccccc23)cc1 [Compound 20, N-(naphthalen-1-yl)-4-(2-oxopyrrolidin-1-yl)benzenesulfonamide] | + (<20% potency compared to compound IWR-1) |  |
| O=C1CCCN1c1ccc(S(=O)(=O)Nc2ccccc2)cc1 [Compound 17, 4-(2-oxopyrrolidin-1-yl)-N-phenylbenzenesulfonamide] | + (<20% potency compared to compound IWR-1) |  |
| COc1ccccc1NS(=O)(=O)c1ccc(N2CCCC2=O)cc1 [Compound 18, N-(2-methoxyphenyl)-4-(2-oxopyrrolidin-1-yl)benzenesulfonamide] | + (<20% potency compared to compound IWR-1) |  |
| Cc1ccc2c(c1)N(S(=O)(=O)c1ccc(N3CCCC3=O)cc1)CCC2 [Compound 11, 1-(4-(7-methyl-3,4-dihydroquinolin-1(2H)-ylsulfonyl)phenyl)pyrrolidin-2-one] | ++++ (between 60 to 80% potency compared to IWR-1) |  |
| Cc1ccc2c(c1)CCN(S(=O)(=O)c1ccc(N3CCCC3=O)cc1)C2 [Compound 13, 1-(4-(6-methyl-3,4-dihydroisoquinolin-2(1H)-ylsulfonyl)phenyl)pyrrolidin-2-one] | + (<20% potency compared to compound IWR-1) |  |
| O=C(Nc1cccc2cccnc12)c1ccc(N2C(=O)[C@@H]3[C@H](C2=O)[C@@H]2C=C[C@H]3C2)cc1 [IWR-1, reference compound] |  | mRNA levels of canonical Wnt target genes CCND1, AXIN2, c-MYC [2]: decreased mRNA expression; cell cycle distribution ([5]; SW480 cells, InCell 1000 images): did not alter either the rate of SW480 cell proliferation or cell cycle; cancer cell proliferation (in words) ([5]; SW480 colon cancer cell line): did not alter either the rate of SW480 cell proliferation or cell cycle |
| CCCN(c1ccccc1)S(=O)(=O)c1ccc(N2CCCC2=O)cc1 [Compound 23, 4-(2-oxopyrrolidin-1-yl)-N-phenyl-N-propylbenzenesulfonamide] | + (<20% potency compared to compound IWR-1) |  |
| O=C1CCCCN1c1ccc(S(=O)(=O)N2CCCc3ccccc32)cc1 [Compound 25, 1-(4-(3,4-dihydroquinolin-1(2H)-ylsulfonyl)phenyl)piperidin-2-one] | + (<20% potency compared to compound IWR-1) | inhibition of Wnt transcriptional activity (in words) [1]: did not inhibit Wnt transcriptional activity |
| COc1ccc2c(c1)CCCN2S(=O)(=O)c1ccc(N2CCCC2=O)cc1 [Compound 7, 1-(4-(6-methoxy-3,4-dihydroquinolin-1(2H)-ylsulfonyl)phenyl)pyrrolidin-2-one] | ++++ (between 60 to 80% potency compared to IWR-1) | half-life [3]: 37 h |
| COC1CCN(c2ccc(S(=O)(=O)N3CCN(C)c4ccccc43)cc2)C1=O (stereo not shown) [Compound 27, 3-methoxy-1-(4-(4-methyl-3,4-dihydroquinoxalin-1(2H)-ylsulfonyl)phenyl)-pyrrolidin-2-one] | + (<20% potency compared to compound IWR-1) |  |
